For orientation: half-life means how long it takes for the measured level to halve. The low end stands for fast loss, the high end for slow loss. The EC50 is the midpoint of the concentration-response curve.

Like-named read-outs stand apart in the source and are kept apart here. Square brackets hold non-standard residues; d marks the D form. Ends that are not written are not given here. Peptide text beside a SMILES is read from it.

Data set [1] can be described thus: In vitro peptide stability in human serum (RP-HPLC). Conditions: for half-life / half-life at 50 µg/mL: human; for half-life: serum; for half-life at 50 µg/mL: human serum, 25% (v/v) in RPMI.
Experimental: The initial time is recorded, and at known time intervals 50 µL of the reaction solution is removed and added to 100 µL of 6% aqueous trichloroacetic acid (TCA) for precipitation of serum proteins. […] The reaction supernatant is then analyzed using RP-HPLC (Agilent 1200 LC System) on a ZORBAX Eclipse XDB-C18, 4.6×150 mm, 5 µm column (Agilent). […] Fluorescence is detected at an excitation wavelength of 280 nm and emission wavelength of 340 nm. Kinetic analysis was carried out by least-squares analysis of the logarithm of the integration peak area versus time.
The next data set addresses T1, human CMKLR1 (Homo sapiens, UniProt Q99788).
T1 construct: host or cells: HEK293A (Invitrogen), stably expressing human Gα15
T1 sequence (Q99788 1-373): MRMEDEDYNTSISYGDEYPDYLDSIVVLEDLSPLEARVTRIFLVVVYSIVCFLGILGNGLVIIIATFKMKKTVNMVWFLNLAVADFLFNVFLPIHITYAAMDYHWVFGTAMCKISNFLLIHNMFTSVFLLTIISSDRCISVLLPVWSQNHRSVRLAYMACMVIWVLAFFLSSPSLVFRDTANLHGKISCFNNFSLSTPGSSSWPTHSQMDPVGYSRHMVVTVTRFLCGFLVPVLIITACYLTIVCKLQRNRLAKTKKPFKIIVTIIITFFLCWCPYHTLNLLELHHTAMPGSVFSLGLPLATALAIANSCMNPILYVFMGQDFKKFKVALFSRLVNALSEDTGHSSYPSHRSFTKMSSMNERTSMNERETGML
In words: Ca2+ mobilization (CellLux imaging) agonist assay in HEK293A cells expressing CMKLR1 and Gα15. Format: cell-based. Here is the method: HEK293A cells (Invitrogen) expressing CMKLR1 and Gα15 were seeded at 5*10^4 cells/well in a poly-D-lysine coated 96-well black well/clear bottom plate (BD Falcon) and cultured overnight. From eighteen to twenty-four hours later, cells were loaded with FLUO4-AM (Invitrogen). Then the cells were washed two times with C1 solution (130 mM NaCl, 5 mM KCl, 10 mM HEPES pH 7.4, 2 mM CaCl2, and 10 mM Glucose). After the final wash, a 100 µL of residual volume remained on the cells. Peptides were dissolved in 10% DMSO to a concentration of 1 mM and were diluted in C1 solution with 0.1 % BSA. They were aliquoted as 2x solutions in 96-well plates and were simultaneously transferred by the robotic system within the imager from the ligand plate to the cell plate. […] Fluorescence data was generated in duplicate and experiments were repeated for at least three times. […] For the calculation of concentration-response curves, signals of two wells receiving the same concentration of test substances were averaged and the fluorescence changes of corresponding buffer C1 wells were subtracted. Signals were normalized to background fluorescence. For the calculation of EC50 values, plots of amplitude versus concentrations were prepared in SigmaPlot 11.
(In general: A change in cytosolic calcium serves as a functional read-out for many receptors and channels.)

[2] abbreviates: Ca2+ mobilization, CMKLR1, decimal comma.
Where [3] appears, read: Ca2+ mobilization, CMKLR1, decimal comma, NR where no EC50 is given, read-out: EC50.

Take `CC(C)C[C@H](NC(=O)[C@@H](N)Cc1ccc(O)cc1)C(=O)N1CCC[C@H]1C(=O)NCC(=O)N[C@@H](CCC(N)=O)C(=O)N[C@@H](Cc1ccc(O)cc1)C(=O)N[C@@H](C)C(=O)N[C@@H](Cc1ccccc1)C(=O)N[C@H](Cc1ccccc1)C(=O)O` (H-YLPGQYAF[dF]-OH): the half-life in data set [1] amounted to 36 ± 4 min.

Regarding `CC(C)C[C@H](NC(=O)[C@@H](N)Cc1ccc(O)cc1)C(=O)N1CCC[C@H]1C(=O)NCC(=O)N[C@@H](CCC(N)=O)C(=O)N[C@@H](Cc1ccc(O)cc1)C(=O)N[C@@H](C)C(=O)N[C@@H](Cc1ccccc1)C(=O)N[C@H](CO)C(=O)O` (H-YLPGQYAF[dS]-OH; N-terminus assumed), in data set [1], the half-life at 50 µg/mL is 22 ± 2 min.

Consider `CC(C)C[C@H](NC(=O)[C@H](N)Cc1ccc(O)cc1)C(=O)N1CCC[C@H]1C(=O)NCC(=O)N[C@@H](CCC(N)=O)C(=O)N[C@@H](Cc1ccc(O)cc1)C(=O)N[C@@H](C)C(=O)N[C@@H](Cc1ccccc1)C(=O)N[C@@H](Cc1ccccc1)C(=O)O` (H-[dY]LPGQYAFF-OH; N-terminus assumed), for which, in data set [1], the half-life at 50 µg/mL was found to be 135 ± 39 min.

For the compound `CC(C)C[C@H](NC(=O)[C@H](N)Cc1ccc(O)cc1)C(=O)N1CCC[C@H]1C(=O)NCC(=O)N[C@@H](CCC(N)=O)C(=O)N[C@@H](Cc1ccc(O)cc1)C(=O)N[C@@H](C)C(=O)N[C@@H](Cc1ccccc1)C(=O)N[C@@H](CO)C(=O)O` (H-[dY]LPGQYAFS-OH), in data set [1], the half-life amounted to 77 ± 5 min.

Regarding `C[C@H](NC(=O)[C@H](Cc1ccccc1)NC(=O)[C@H](CCC(N)=O)NC(=O)CNC(=O)[C@@H]1CCCN1C(=O)[C@@H](N)Cc1ccccc1)C(=O)N[C@@H](Cc1ccccc1)C(=O)N[C@H](CO)C(=O)N[C@H](CO)C(=O)O` [compound 105] (H-FPGQFAF[dS][dS]-OH; N-terminus assumed), the max response on human CMKLR1 (setting [2]) was 1,81 DF/F0. Further, the EC50 at human CMKLR1 (setting [3]) came to 0.611 µM.

On to `CC(C)C[C@H](NC(=O)CNC(=O)[C@H](Cc1ccc(O)cc1)NC(=O)[C@H](CC(C)C)NC(=O)[C@H](N)Cc1ccccc1)C(=O)N[C@@H](Cc1ccc(O)cc1)C(=O)N[C@@H](C)C(=O)N[C@@H](Cc1ccccc1)C(=O)N1CCC[C@@H]1C(=O)O` [compound 108] (H-[dF]LYGLYAF[dP]-OH; N-terminus assumed), for which the max response on human CMKLR1 (setting [2]) was 1,61 DF/F0. The EC50 at human CMKLR1 (setting [3]) was determined as 1.21 µM.

`CC(C)C[C@H](NC(=O)[C@@H](N)Cc1ccccc1)C(=O)N1CCC[C@H]1C(=O)NCC(=O)N[C@@H](CCC(N)=O)C(=O)N[C@@H](Cc1ccccc1)C(=O)N[C@@H](C)C(=O)N[C@@H](Cc1ccccc1)C(=O)N1CCC[C@@H]1C(=O)O` [compound 110] (H-FLPGQFAF[dP]-OH; N-terminus assumed): the max response at human CMKLR1 (setting [2]) was 1,59 DF/F0. Moreover, the EC50 at human CMKLR1 (setting [3]) was 1.77 µM.

As to `C[C@H](NC(=O)[C@H](Cc1ccccc1)NC(=O)[C@H](CCC(N)=O)NC(=O)CNC(=O)[C@@H]1CCCN1C(=O)[C@H](CC(=O)O)NC(=O)[C@H](N)Cc1ccc(O)cc1)C(=O)N[C@@H](Cc1ccccc1)C(=O)N[C@H](CO)C(=O)O` [compound 112] (H-[dY]DPGQFAF[dS]-OH; N-terminus assumed), on human CMKLR1, the max response is on record as 1,12 DF/F0.

Regarding `C[C@H](NC(=O)[C@H](Cc1ccccc1)NC(=O)[C@@H](CCC(N)=O)NC(=O)CNC(=O)[C@H](Cc1ccccc1)NC(=O)[C@H](C)NC(=O)[C@@H](N)Cc1ccccc1)C(=O)N[C@@H](Cc1ccccc1)C(=O)N[C@H](CO)C(=O)O` [compound 114] (H-FAFG[dQ]FAF[dS]-OH; N-terminus assumed), the max response on human CMKLR1 (setting [2]) was 1,24 DF/F0. The EC50 at human CMKLR1 (setting [3]) is 2.44 µM.

As for `CC(C)C[C@H](NC(=O)[C@H]1CCCN1C(=O)CNC(=O)[C@H](Cc1ccccc1)NC(=O)[C@H](CC(C)C)NC(=O)[C@@H](N)Cc1ccccc1)C(=O)N[C@@H](C)C(=O)N[C@@H](CC(C)C)C(=O)N1CCC[C@@H]1C(=O)O` [compound 116] (H-FLFG[dP]LAL[dP]-OH; N-terminus assumed), the max response on human CMKLR1 (setting [2]) is given as 0,9 DF/F0. Moreover, the EC50 on human CMKLR1 (setting [3]) came out at 4.14 µM.

Regarding `CC(C)C[C@H](NC(=O)[C@@H](Cc1ccccc1)NC(=O)[C@H]1CCCN1C(=O)[C@H](CC(C)C)NC(=O)[C@H](C)NC(=O)[C@H](Cc1ccc(O)cc1)NC(=O)[C@H]1CCCN1C(=O)[C@H](CC(C)C)NC(=O)[C@H](N)Cc1ccccc1)C(=O)O` [compound 118] (H-[dF]L[dP]YAL[dP][dF]L-OH; N-terminus assumed), the max response at human CMKLR1 (setting [2]) is recorded as 0,61 DF/F0. The EC50 at human CMKLR1 (setting [3]) turned out to be 21.5 µM.

For `CC(C)C[C@H](NC(=O)[C@H](Cc1ccccc1)NC(=O)[C@H](Cc1ccc(O)cc1)NC(=O)[C@@H]1CCCN1C(=O)[C@H]1CCCN1C(=O)[C@@H]1CCCN1C(=O)[C@H](CC(C)C)NC(=O)[C@H](N)Cc1ccc(O)cc1)C(=O)N[C@H](Cc1ccccc1)C(=O)O` [compound 143] (H-[dY]LP[dP]PYFL[dF]-OH; N-terminus assumed), on human CMKLR1 (setting [2]), the max response is on record as 1,62 DF/F0. Also, at human CMKLR1 (setting [3]), the EC50 was 0.139 µM.

With `CC(C)C[C@H](NC(=O)[C@H](Cc1ccc(O)cc1)NC(=O)[C@@H](Cc1ccccc1)NC(=O)[C@@H]1CCCN1C(=O)[C@H]1CCCN1C(=O)[C@@H]1CCCN1C(=O)[C@H](CC(C)C)NC(=O)[C@@H](N)Cc1ccc(O)cc1)C(=O)N1CCC[C@H]1C(=O)O` [compound 152] (H-YLP[dP]P[dF]YLP-OH; N-terminus assumed), the max response at human CMKLR1 (setting [2]) is recorded as 1,7 DF/F0. Moreover, at human CMKLR1 (setting [3]), the EC50 came to 0.302 µM.

In turn, `C[C@@H](NC(=O)[C@H](Cc1ccccc1)NC(=O)[C@H](Cc1ccccc1)NC(=O)[C@@H](CO)NC(=O)[C@@H]1CCCN1C(=O)[C@@H](Cc1ccc(O)cc1)NC(=O)[C@H](N)Cc1ccc(O)cc1)C(=O)N[C@@H](Cc1ccccc1)C(=O)N1CCC[C@H]1C(=O)O` [compound 154] (H-[dY][dY]P[dS]FF[dA]FP-OH; N-terminus assumed) came in with a half-life at 50 µg/mL in data set [1] of 374 min.

Take `CC(C)C[C@H](NC(=O)[C@H](N)Cc1ccc(O)cc1)C(=O)N1CCC[C@H]1C(=O)N[C@H](CO)C(=O)N[C@@H](CCC(N)=O)C(=O)N[C@@H](Cc1ccc(O)cc1)C(=O)N[C@@H](C)C(=O)N[C@@H](Cc1ccccc1)C(=O)N[C@H](Cc1ccccc1)C(=O)O` [yLPsQYAFf] (H-[dY]LP[dS]QYAF[dF]-OH; N-terminus assumed): on human CMKLR1, a half-maximal effect (EC50) was put at 0.00049 ± 0.00013 µM.

For the compound FLPGQFAFK-OH [compound 67], the max response at human CMKLR1 (setting [2]) is recorded as 0,73 DF/F0. Also, on human CMKLR1 (setting [3]), the EC50 is 1.24 µM.

As to FLPGQFAFS-NH2 [compound 3], on human CMKLR1 (setting [2]), the max response was 1,77 DF/F0. The EC50 at human CMKLR1 (setting [3]) turned out to be 0.0413 µM.

In the case of FPPGQGAFK-OH [compound 66], the max response at human CMKLR1 (setting [2]) is 0,67 DF/F0. Further, at human CMKLR1 (setting [3]), the concentration giving a half-maximal response (EC50) is 1.18 µM.

As to FYPGQWAYS-NH2 [compound 20], the max response at human CMKLR1 (setting [2]) is recorded as 0,64 DF/F0. Also, at human CMKLR1 (setting [3]), the EC50 turned out to be 12.9 µM.

As for WFPGQYAYS-NH2 [compound 23], the max response on human CMKLR1 (setting [2]) is given as 0,44 DF/F0. In addition, on human CMKLR1 (setting [3]), the EC50 was 20.7 µM.

For the compound WYPGNFAFS-NH2 [compound 16], at human CMKLR1 (setting [2]), the max response was 1,47 DF/F0. The EC50 at human CMKLR1 (setting [3]) was determined as 3.84 µM.

YFPGHFAFS-NH2: the “stability: t1/2 ±SD” value in data set [1] (peptide half life in human serum (25% v/v in RPMI, 37°C), HPLC assay, mean of three independent experiments ± SD) came out at 17 ± 4 min.

With YFPGHFAFS-NH2 [compound 7], the max response on human CMKLR1 (setting [2]) is 1,55 DF/F0.

Turning to YFPGHFAFS-OH [compound 31], the max response on human CMKLR1 is given as 1,07 DF/F0.

Turning to YFPGNFAFS-NH2 [compound 6], on human CMKLR1 (setting [2]), the max response is 1,30 DF/F0.

Turning to YFPGNFAFS-OH [compound 32], the max response at human CMKLR1 was 0,89 DF/F0.

Compound YFPGQFAFG-OH returned a half-life at 50 µg/mL in data set [1] of 13 ± 1 min.

With YFPGQFAFK-NH2 [compound 2], the max response at human CMKLR1 (setting [2]) is 1,84 DF/F0. Besides, the EC50 at human CMKLR1 (setting [3]) came to 0.0373 µM.

Turning to YFPGQFAFQ-OH [compound 50], the max response on human CMKLR1 (setting [2]) was 1,04 DF/F0. Moreover, at human CMKLR1 (setting [3]), the EC50 is 0.0526 µM.

In the case of YFPGQFDFS-OH [compound 53], at human CMKLR1, the max response is 0,93 DF/F0.

Consider YFPGQWAWS-NH2 [compound 9], for which, on human CMKLR1 (setting [2]), the max response is reported as 1,61 DF/F0. The EC50 on human CMKLR1 (setting [3]) amounted to 1.88 µM.

In the case of YFPGQYAFF-NH2 [compound 1], on human CMKLR1 (setting [2]), the max response is 1,47 DF/F0. Further, the EC50 on human CMKLR1 (setting [3]) was 0.0152 µM.

With YFPGYFAFG-NH2 [compound 11], the max response at human CMKLR1 (setting [2]) is 1,41 DF/F0. The EC50 at human CMKLR1 (setting [3]) worked out at 2.62 µM.

In the case of YYPGQYAYS-NH2 [compound 17], the max response on human CMKLR1 (setting [2]) is given as 1,09 DF/F0. Moreover, the EC50 on human CMKLR1 (setting [3]) was determined as 4.36 µM.

(Values after publication PMC3351444, “Molecular Evolution of a Peptide GPCR Ligand Driven by Artificial Neural Networks” (PLoS ONE, 2012).)
